Assay [1] relates to Mus musculus. The experiment in a line: Effect on gross behavioral activity in Swiss albino mouse assessed as spontaneous motor activity at 5 mg/kg, ip after 45 mins using smoked drum. The arrangement: dose 5 mg/kg. It counts as functional, organism-based.
In assay [2] the test system is Mus musculus. Nature of the assay: Effect on gross behavioral activity in Swiss albino mouse assessed as ptosis at 100 mg/kg, ip using smoked drum. It counts as functional, organism-based. The arrangement: dose 100 mg/kg.
The test system of assay [3] is Canis familiaris. The experiment in a line: Increase in carotid blood pressure in anesthetized Mongrel dog at 25 mg/kg, iv in presence of adrenaline. It counts as functional, organism-based. The arrangement: dose 25 mg/kg. Conditions: Canis lupus familiaris.
Assay [4] relates to Mus musculus. Nature of the assay: Effect on gross behavioral activity in Swiss albino mouse assessed as decrease in motor activity at 200 mg/kg, ip using smoked drum. It counts as functional, organism-based. Set-up: dose 200 mg/kg.
In assay [5] the test system is Canis familiaris. The experiment in a line: Increase in carotid blood pressure in anesthetized Mongrel dog at 25 mg/kg, iv in presence of Priscol. It counts as functional, organism-based. The arrangement: dose 25 mg/kg. The conditions noted are these: Canis lupus familiaris.
The test system of assay [6] is Mus musculus. Nature of the assay: Effect on gross behavioral activity in Swiss albino mouse assessed as CNS depression at 300 mg/kg, ip using smoked drum. In kind it is functional, organism-based. The arrangement: dose 300 mg/kg. The conditions noted are these: Central nervous system.
Assay [7] deals with Mus musculus. The experiment in a line: Effect on gross behavioral activity in Swiss albino mouse assessed as sedation at 200 mg/kg, ip using smoked drum. The arrangement: dose 200 mg/kg. It counts as functional, organism-based.
Assay [8] relates to Mus musculus. The experiment in a line: Effect on gross behavioral activity in Swiss albino mouse assessed as ptosis at 200 mg/kg, ip using smoked drum. It counts as functional, organism-based. The arrangement: dose 200 mg/kg.
For assay [9], the system named is Mus musculus. The experiment in a line: Effect on gross behavioral activity in Swiss albino mouse assessed as decrease in motor activity at 100 mg/kg, ip using smoked drum. It counts as functional, organism-based. The arrangement: dose 100 mg/kg.
Assay [10] relates to Mus musculus. The experiment in a line: Effect on gross behavioral activity in Swiss albino mouse assessed as sedation at 100 mg/kg, ip using smoked drum. In kind it is functional, organism-based. The arrangement: dose 100 mg/kg.
In assay [11] the test system is Canis familiaris. The experiment in a line: Increase in intestinal movement in anesthetized Mongrel dog at 25 mg/kg, iv. In kind it is functional, organism-based. Set-up: dose 25 mg/kg. Conditions: Canis lupus familiaris.
The subject of assay [12] is Canis familiaris. Nature of the assay: Increase in carotid blood pressure in anesthetized Mongrel dog at 25 mg/kg, iv. In kind it is functional, organism-based. The arrangement: dose 25 mg/kg. The conditions noted are these: Canis lupus familiaris.
In another assay the test system is Rattus norvegicus. The experiment in a line: Increase in pentobarbital-induced sleeping time in Wistar albino rat administered 30 mins before pentobarbital challenge relative to control. In kind it is functional.
Assay [13] has as its system Mus musculus. The experiment in a line: Effect on gross behavioral activity in Swiss albino mouse assessed as CNS depression at 100 mg/kg, ip using smoked drum. In kind it is functional, organism-based. Set-up: dose 100 mg/kg. Conditions: Central nervous system.
For assay [14], the system named is Mus musculus. Nature of the assay: Effect on gross behavioral activity in Swiss albino mouse assessed as spontaneous motor activity at 200 mg/kg, ip after 45 mins using smoked drum. In kind it is functional, organism-based. Set-up: dose 200 mg/kg.
For assay [15], the system named is Canis familiaris. Nature of the assay: Increase in respiration in anesthetized Mongrel dog at 25 mg/kg, iv. It counts as functional, organism-based. The arrangement: dose 25 mg/kg. The conditions noted are these: Canis lupus familiaris.
In assay [16] the test system is Mus musculus. The experiment in a line: Effect on gross behavioral activity in Swiss albino mouse assessed as CNS depression at 200 mg/kg, ip using smoked drum. In kind it is functional, organism-based. The conditions noted are these: Central nervous system. Set-up: dose 200 mg/kg.

This is an account of results in ChEMBL document CHEMBL1158647, “Synthesis and Pharmacology of Mangostin-3,6-di-O-glucoside” (1979).

The source made the active and inactive calls. The rule behind the calls is not given here.

As for `CN(C)CCCN1c2ccccc2Sc2ccc(Cl)cc21`, the outcome in the assay with Mus musculus [1] was Active.
Same read-out and setting: the same measure for `C[C@H](N)Cc1ccccc1`: “Active”.
Regarding `COc1c(O[C@@H]2O[C@H](CO)[C@@H](O)[C@H](O)[C@H]2O)cc2oc3cc(O[C@@H]4O[C@H](CO)[C@@H](O)[C@H](O)[C@H]4O)c(CC=C(C)C)c(O)c3c(=O)c2c1CC=C(C)C`, the result with Mus musculus [2], in the assay with Canis familiaris [3], with Mus musculus [4], in the assay on Canis familiaris [5], in the assay with Mus musculus [6] and in the assay with Mus musculus [7] was Active. The outcome in the assay with Mus musculus [8], with Mus musculus [9], with Mus musculus [10], in the assay on Canis familiaris [11], in the assay on Canis familiaris [12] and with Mus musculus [13] was Active. Besides, the result in the assay on Mus musculus [14], in the assay on Canis familiaris [15], in the assay on Mus musculus [1] and in the assay with Mus musculus [16] was Active. Further, the Activity in the assay with Rattus norvegicus came out at 53.81%.
